Literature values, collected in patent US20220096467A1, “COMBINATION OF SELECTIVE ALPHA-ADRENERGIC RECEPTOR AGONIST OR AN ANTICHOLINERGIC AGENT AND LIPOIC ACID AND USES THEREOF” (Cellix Bio Private Limited, priority 2019, published 2022).

Tested on: eyes of patients who had open angle glaucoma
Conditions: 150 mg of ALA per day, controls received only topical medical therapy

SMILES: O=C(O)CCCCC1CCSS1 (stereo not drawn) [ALA, alpha lipoic acid]
- Eyes in the study with enhanced color visual fields and visual sensitivity versus the controls: 45-47%
